Here are results for one compound from patent US20250129127A1, “Systems for Amplification of AAV Rep and Cap Proteins” (priority 2022, published 2025).

One assay concerns T223 cells. From the text:
FIG. 9 provides a schematic for GS repression/inhibition for the pathways described in FIG. 8. A GS-KO P2 cell line is independently transfected with the various Rep/Cap GS constructs (see above and FIG. 8). P3 cells are selected in cell culture media lacking glutamine (-Gln) to select for cells expressing a higher level of GS.

A further assay has as its system AAV capsid. Description: Capsid ELISA for total capsid titer after induction. It counts as cell-based. Conditions: 1000 uM MSX; Fuji cell culture media lacking Gln; compared to T223 cells not exposed to MSX. How it is done:
(§1) Capsid ELISA was performed to determine total capsid titer. Nuclease treatment and qPCR were performed to determine the titer of capsids encapsidating the viral genome (e.g., the payload construct). […] Fuij 7-2 cell media with 4 mM glutamax was used in the cell culture.
A general note: An ELISA detects its analyte on a solid surface through an enzyme-linked reagent.

The next assay concerns AAV viral genomes. Description: Titer of capsids encapsidating the viral genome by nuclease treatment and qPCR after induction with doxycycline and tamoxifen. It counts as cell-based. Conditions: 1000 uM MSX; Fuji cell culture media lacking Gln; compared to T223 cells not exposed to MSX. The protocol:
as §1
In general terms: In qPCR the cycle at which signal appears reflects the starting amount.

Each structure is given as a SMILES string. Read-outs that look alike come from different tables or passages of the source.

On to `CS(=N)(=O)CC[C@H](N)C(=O)O` (some centres unmarked) [MSX, methionine sulfoximine], for which the “MSX concentration from which survival is impacted” value with T223 cells (P3 T223 cells expressing wild type GS) is ≥ 250 µM; with T223 cells (T223 cells expressing full length GS, selective media) it was ≥ 250 µM. Also, the reduction of viability result in the assay with T223 cells (T223 cells, 500 uM MSX (of 50, 100, 250, 500 uM tested)) was “most effective in reducing viability”. Besides, in the assay on AAV capsid, the “viral particles (Capsids/mL) in T223 cells” value is “increased levels”. Further, in the assay on AAV viral genomes, the “viral genomes (vg/mL) in T223 cells” value is “increased levels”.
